# In US20200239530A1, “COMPOUNDS AND METHODS OF MODULATING PROTEIN DEGRADATION” (Vividion Therapeutics, Inc., priority 2017, published 2020):
# What was measured:
# [1] = target: T1, RRP8 Ribosomal RNA-processing protein 8 (Homo sapiens, UniProt O43159); experiment: Cysteine liganding, probe competition; type: binding
# T1 construct: Cells were resuspended in cold PBS on ice and sonicated with a probe sonicator to achieve lysis; endogenous in cells
# T1 sequence (O43159 1-456): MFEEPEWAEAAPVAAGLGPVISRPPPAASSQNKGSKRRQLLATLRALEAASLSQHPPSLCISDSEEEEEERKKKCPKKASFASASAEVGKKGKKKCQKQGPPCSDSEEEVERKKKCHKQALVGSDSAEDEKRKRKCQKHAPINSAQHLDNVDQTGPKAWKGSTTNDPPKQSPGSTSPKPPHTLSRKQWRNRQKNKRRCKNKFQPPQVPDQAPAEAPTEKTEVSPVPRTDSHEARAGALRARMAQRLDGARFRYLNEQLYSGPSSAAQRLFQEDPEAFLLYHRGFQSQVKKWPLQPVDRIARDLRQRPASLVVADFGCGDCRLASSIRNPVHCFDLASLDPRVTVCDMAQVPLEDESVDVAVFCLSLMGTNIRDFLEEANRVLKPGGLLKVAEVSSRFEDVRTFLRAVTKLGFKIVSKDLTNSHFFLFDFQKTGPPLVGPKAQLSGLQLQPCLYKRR
# Summary of the method: (§1)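 Probe competition in native proteome: 5 mg/ml lysate, compound 1 hr 25° C, then desthiobiotin iodoacetamide (10 mM stock) 1 hr 25° C; acetone ppt, urea/DTT reduction, iodoacetamide alkylation, trypsin, streptavidin pull-down.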
# [2] = target: T2, DDX50 ATP-dependent RNA helicase DDX50 (Homo sapiens, UniProt Q9BQ39); experiment: Cysteine liganding, probe competition; type: binding
# T2 construct: 200 μL of lysate containing 5 mg/ml proteome was treated with 2 μL of 100× compound stock; endogenous in cells
# T2 sequence (Q9BQ39 1-737): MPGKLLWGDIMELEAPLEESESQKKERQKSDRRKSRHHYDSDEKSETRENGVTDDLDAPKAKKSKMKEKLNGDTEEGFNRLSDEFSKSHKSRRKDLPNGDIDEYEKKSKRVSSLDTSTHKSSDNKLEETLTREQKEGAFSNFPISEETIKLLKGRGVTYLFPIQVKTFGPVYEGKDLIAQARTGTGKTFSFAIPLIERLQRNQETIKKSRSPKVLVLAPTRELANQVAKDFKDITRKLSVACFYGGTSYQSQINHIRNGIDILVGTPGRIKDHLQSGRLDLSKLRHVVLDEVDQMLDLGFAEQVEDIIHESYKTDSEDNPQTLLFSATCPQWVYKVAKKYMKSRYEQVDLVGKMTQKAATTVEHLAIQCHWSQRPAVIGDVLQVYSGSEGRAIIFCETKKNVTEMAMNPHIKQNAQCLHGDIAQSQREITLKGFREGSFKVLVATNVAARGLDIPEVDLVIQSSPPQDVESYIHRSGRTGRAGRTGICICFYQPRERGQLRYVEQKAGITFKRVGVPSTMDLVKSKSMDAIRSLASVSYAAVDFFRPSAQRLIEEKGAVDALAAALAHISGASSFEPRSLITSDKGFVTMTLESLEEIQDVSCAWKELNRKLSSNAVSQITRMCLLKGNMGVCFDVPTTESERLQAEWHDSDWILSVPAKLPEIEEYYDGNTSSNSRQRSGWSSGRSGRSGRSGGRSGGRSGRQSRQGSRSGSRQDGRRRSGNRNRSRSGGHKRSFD
# Summary of the method: as §1
Structure (SMILES),"Liganded ([1]; RRP8 Res# 451, uniprot O43159)","Liganded ([2]; DDX50 Res# 603, uniprot Q9BQ39)",100 Max ([1]; uniprot O43159),100 ave ([1]; uniprot O43159),500 Max ([1]; uniprot O43159),500 ave ([1]; uniprot O43159),100 Max ([2]; uniprot Q9BQ39),100 ave ([2]; uniprot Q9BQ39),500 Max ([2]; uniprot Q9BQ39),500 ave ([2]; uniprot Q9BQ39)
COc1ccc2c(c1)CCCN2C(=O)CCl [KB02],YES,YES,–,–,–,–,–,–,–,–
O=C(CCl)Nc1cc(C(F)(F)F)cc(C(F)(F)F)c1 [KBO3],–,–,14.62,−3.99,57.64,48.93,−9.62,−13.925,28.63,22.82
